The target of assay [1] is T1, glutathione S-transferase (GST) fusion protein containing the full length sequence for human cdc25A (Homo sapiens, UniProt P30304).
T1 construct: made in house; host or cells: Escherichia coli
T1 sequence (P30304 1-524): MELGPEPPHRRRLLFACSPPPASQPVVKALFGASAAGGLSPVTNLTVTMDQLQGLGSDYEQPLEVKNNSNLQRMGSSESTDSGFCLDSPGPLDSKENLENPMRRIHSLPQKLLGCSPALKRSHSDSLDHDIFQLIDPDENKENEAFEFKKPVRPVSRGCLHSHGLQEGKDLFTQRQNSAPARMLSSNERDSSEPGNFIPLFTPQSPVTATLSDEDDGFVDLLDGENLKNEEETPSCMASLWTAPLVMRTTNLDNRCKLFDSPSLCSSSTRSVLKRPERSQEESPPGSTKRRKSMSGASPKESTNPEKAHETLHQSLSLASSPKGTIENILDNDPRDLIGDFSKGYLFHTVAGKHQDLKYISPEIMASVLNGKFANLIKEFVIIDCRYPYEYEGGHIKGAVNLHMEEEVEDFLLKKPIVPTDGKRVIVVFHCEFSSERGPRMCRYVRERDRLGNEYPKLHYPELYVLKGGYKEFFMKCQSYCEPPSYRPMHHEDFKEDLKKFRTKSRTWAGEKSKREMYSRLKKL
As to the kind of experiment: Inhibition of CDC25A phosphatase (fluorescein diphosphate substrate). The conditions noted are these: for IC50: 10 mM dithiothreitol, fluorescein diphosphate substrate, read-out: Approximate IC50 (concentration yielding 50% inhibition of cdc25A) (converted); for relative potency against CDC25A, vs the double bond unsaturated compounds in the series: compared with double bond unsaturated compound in this series. It counts as biochemical. The text has this:
Rice, R. L. et al., A targeted Library of Small-Molecule, Tyrosine, and Dual-Specificity Phosphatase Inhibitors Derived from a Rational Core Design and Random Side Chain Variation, Biochemistry, 1997, 36, 15965-15974. Briefly, the target enzyme for the assay was a glutathione S-transferase (GST) fusion protein containing the full length sequence for human cdc25A. The enzyme was expressed in Escherichia coli and purified by affinity chromatography over glutathione-agarose. Enzyme activity was measured under linear reaction conditions with fluorescein diphosphate as the substrate. Reactions were performed in the presence of 10 mM dithiothreitol to eliminate oxidant-type inhibitors from scoring as hits in this assay.

The test system of assay [2] is HT-29 human colon cancer cells. The assay can be described thus: Inhibition of HT-29 colon carcinoma cell growth, soft agarose colony-forming assay. The assay is classed as cell-based. The conditions noted are these: HT-29, 168 h, continuous drug exposure over 7 days, read-out: IC50, proliferation of HT-29 colon cancer cells. On the procedure: (§1) HT-29 human colon cancer cells and A549 human lung adenocarcinoma cells were purchased from the American Tissue Type Collection (Rockville, Md.). The cell were maintained in Dulbecco's modified Eagle's media (DMEM) containing 10% fetal bovine serum and harvested with 0.05% trypsin and 0.5 mM EDTA before becoming confluent.
Compounds 6 and 8 prepared as discussed in the preceding examples were also evaluated for potency as inhibitors of colon cancer cell lines (HT-29). Inhibition of HT-29 colon carcinoma cell growth by compounds 6 and 8 was measured in the soft agarose colony-forming assay with continuous drug exposure over 7 days as previously described. Alley M. C. et al., Activation and inactivation of cancer chemotherapeutic agents by rat heptocytes cocultured with human tumor cell lines, Cancer Res 44:549 (1984). Briefly, soft-agarose culture was performed in 35-mm culture dishes contained a base layer consisting of 0.5 ml of standard culture medium with 0.5% agarose. […] Cell lines forming a sufficient number of detectable colonies were analyzed following 7 days of incubation. Viable colonies were stained using metabolizable tetrazolium salt, and analyzed as described previously. […]

Assay [3] deals with A549 human lung adenocarcinoma cells. The assay can be described thus: Clonogenic assay, inhibition of growth of lung adenocarcinoma (A549) cells. It counts as cell-based. The procedure:
as §1
Compound 6 prepared as discussed in the preceding examples were also evaluated for potency as inhibitors of the growth of lung adenocarcinoma cell lines. The effect of compound 6 was assessed with a clonogenic assay. In brief, A549 cells in log-phase growth were harvested, resuspended in fresh growth media and plated in triplicate in 60 mm dishes at cell concentrations estimated to yield 20-100 colonies per dish following treatment. Four hours after plating, cells were either exposed to compound 6 for one day followed by a wash and culture in fresh medium for 11 days (dotted line), or continuously exposed to this compound for 12 days (solid line). Cells were fixed and stained with Coomassie Blue at the end of the 12th day. Colonies with greater than 50 cells were scored.

Consider 8 compounds from patent US6011058A, “Seco-cholestane derivatives and methods of making the same” (Georgia Tech Research Corporation, priority 1998, dated 2000).

In brackets after ≈: the same amount, converted by molar mass. Entries after “also recorded” stand apart in the source; their conditions may differ. Read-outs that look alike come from different tables or passages of the source. Some results are limits rather than exact numbers.

Regarding “3-actoxy-5, 6-seco-5-oxo-pregnen-6-oic acid [reference compound]”, in assay [1] (negative control), the “inhibitory activity against CDC25A phosphatase” value is reported as “no inhibitory activity; also recorded: lost its activity”.
As to `CC(C)CCC[C@@H](C)[C@H]1CC[C@H]2[C@@H]3CC(=O)O[C@](C)(CC/C=C\C#N)[C@H]3CC[C@]12C` [Compound 6], the IC50 in assay [2] is 5 µg/mL (≈ 12.1 µM); in assay [3] (A549, 288 h, 12-day continuous exposure, read-out: concentration reducing number of A549 colonies per dish 50%), 7 µM; in assay [3] (A549, one day exposure, wash, then fresh medium for 11 days, read-out: concentration giving 50% reduction of the tumor cell colony number per dish), 37 µM; in assay [1], 14.5 µM.
`CC(C)CCC[C@@H](C)[C@H]1CC[C@H]2[C@@H]3CC(=O)O[C@@](C)(CC/C=C\C#N)[C@H]3CC[C@]12C` [Compound 7]: in assay [1], the IC50 is above 121 µM. The “relative activity against CDC25A, vs 10R isomer compound 6” value in assay [1] (10S vs 10R isomer, compound 6) is listed as “much less active”.
`C=C(CC/C=C\C#N)[C@H]1CC[C@]2(C)[C@@H]([C@H](C)CCCC(C)C)CC[C@H]2[C@@H]1CC(=O)O` [Compound 8]: the results for the IC50 in assay [2] and in assay [1] were 4.8 µg/mL (≈ 11.6 µM) and 10.6 µM, respectively.
Consider `C/C(=C/C/C=C\C#N)[C@H]1CC[C@]2(C)[C@@H]([C@H](C)CCCC(C)C)CC[C@H]2[C@@H]1CC(=O)O` [Compound 9], for which, in assay [1], the IC50 is above 24.2 µM.
For the compound `C/C(=C\C/C=C\C#N)[C@H]1CC[C@]2(C)[C@@H]([C@H](C)CCCC(C)C)CC[C@H]2[C@@H]1CC(=O)O` [Compound 10], the IC50 in assay [1] is 24.2 µM.
For the compound `C=C(CCCCC#N)[C@H]1CC[C@]2(C)[C@@H]([C@H](C)CCCC(C)C)CC[C@H]2[C@@H]1CC(=O)O` [Compound 13], in assay [1], the IC50 was 2.17 µM and the “relative potency against CDC25A, vs the double bond unsaturated compounds in the series” value is “much more potent”.
On the same counts, the results for `CC(C)CCC[C@@H](C)[C@H]1CC[C@H]2[C@@H]3CC(=O)O[C@](C)(CCCCC#N)[C@H]3CC[C@]12C` [Compound 15] are 2.17 µM and “much more potent”.
